We go through three compounds from patent US12617792B2, “Purine derivative, intermediate and application thereof in preparing anticancer medicine” (SUZHOU RAYMON PHARMACEUTICALS COMPANY, LTD., priority 2019, dated 2026).

In the assay the target is T1, PI3K-alpha enzyme (Homo sapiens, UniProt P42336).
T1 construct: purchased Millipore 14-602
Briefly: PI3-Kinase (human) HTRF Assay kit, PI3K alpha enzyme IC50 determination. The format is biochemical. The settings on record: ATP 10 μM, PIP2 10 μM, 1% DMSO, double holes for each concentration, read-out: the half inhibitory concentrations (IC50) of the tested compounds on PI3K-alpha. On the procedure: Prepare fresh before each use. […] 1 μL of each was added to 24 μL 1× Reaction Buffer. 5 μL of each diluted solution was added into a 384-well plate and contained 1% DMSO. […] This working solution should be prepared with 0.1-0.2 ml more to meet the control usage and dead volume. […] In a 20 μL kinase reaction system, the concentration of ATP was 10 μM. For example, to prepare 2 ml ATP working solution, take 8 μL 10 mM ATP and add it to 1992 μL 1× reaction buffer.

T1 sequence (P42336 whole entry): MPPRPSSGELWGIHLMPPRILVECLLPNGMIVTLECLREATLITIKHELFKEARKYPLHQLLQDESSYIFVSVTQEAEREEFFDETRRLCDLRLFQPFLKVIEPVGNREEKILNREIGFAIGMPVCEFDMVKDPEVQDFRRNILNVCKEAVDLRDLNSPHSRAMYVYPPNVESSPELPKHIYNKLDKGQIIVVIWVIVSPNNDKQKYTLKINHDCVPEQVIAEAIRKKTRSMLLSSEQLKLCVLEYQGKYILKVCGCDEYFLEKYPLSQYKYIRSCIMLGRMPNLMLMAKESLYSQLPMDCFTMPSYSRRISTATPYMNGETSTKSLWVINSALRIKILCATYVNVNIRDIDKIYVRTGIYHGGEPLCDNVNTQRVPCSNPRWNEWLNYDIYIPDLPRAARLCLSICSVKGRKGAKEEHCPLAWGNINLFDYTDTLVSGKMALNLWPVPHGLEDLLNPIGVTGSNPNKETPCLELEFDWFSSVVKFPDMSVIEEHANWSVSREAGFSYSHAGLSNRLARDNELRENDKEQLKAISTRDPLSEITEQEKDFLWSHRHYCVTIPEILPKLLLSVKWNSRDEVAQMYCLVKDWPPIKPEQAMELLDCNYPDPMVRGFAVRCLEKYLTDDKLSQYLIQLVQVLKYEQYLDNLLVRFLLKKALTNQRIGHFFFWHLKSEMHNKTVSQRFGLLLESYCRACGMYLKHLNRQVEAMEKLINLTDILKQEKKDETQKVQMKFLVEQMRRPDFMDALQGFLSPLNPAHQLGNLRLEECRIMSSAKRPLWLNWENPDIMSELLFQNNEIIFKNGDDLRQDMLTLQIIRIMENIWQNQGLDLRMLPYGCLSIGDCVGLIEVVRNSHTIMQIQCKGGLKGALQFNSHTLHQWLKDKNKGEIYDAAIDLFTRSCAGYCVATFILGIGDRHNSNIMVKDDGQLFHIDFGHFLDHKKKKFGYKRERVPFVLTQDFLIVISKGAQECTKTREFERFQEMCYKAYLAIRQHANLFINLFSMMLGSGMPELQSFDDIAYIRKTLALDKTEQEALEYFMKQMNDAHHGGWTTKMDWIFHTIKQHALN
T1 sequence (P27986 whole entry partner): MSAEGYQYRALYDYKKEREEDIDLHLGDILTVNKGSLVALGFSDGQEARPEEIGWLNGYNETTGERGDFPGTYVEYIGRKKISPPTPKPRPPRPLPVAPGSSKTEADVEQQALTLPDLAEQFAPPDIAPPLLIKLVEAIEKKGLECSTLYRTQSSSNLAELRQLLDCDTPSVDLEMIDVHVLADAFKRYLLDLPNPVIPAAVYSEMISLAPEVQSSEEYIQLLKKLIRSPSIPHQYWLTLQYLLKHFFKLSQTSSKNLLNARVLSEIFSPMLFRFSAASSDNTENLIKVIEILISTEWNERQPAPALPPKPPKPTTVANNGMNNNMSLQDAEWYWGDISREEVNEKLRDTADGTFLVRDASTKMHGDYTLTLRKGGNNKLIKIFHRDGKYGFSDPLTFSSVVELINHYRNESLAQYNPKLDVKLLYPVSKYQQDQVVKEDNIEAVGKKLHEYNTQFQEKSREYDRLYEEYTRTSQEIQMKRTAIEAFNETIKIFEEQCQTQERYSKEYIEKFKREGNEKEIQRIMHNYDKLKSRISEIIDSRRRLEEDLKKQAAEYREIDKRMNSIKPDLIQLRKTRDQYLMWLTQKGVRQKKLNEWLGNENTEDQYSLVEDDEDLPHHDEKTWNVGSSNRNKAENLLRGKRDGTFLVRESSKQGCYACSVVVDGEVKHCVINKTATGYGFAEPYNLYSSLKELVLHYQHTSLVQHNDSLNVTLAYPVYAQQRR

Regarding `O=C(Nc1ccc(COCCN2CCOCC2)cc1)Nc1ccc(-c2nc(N3CCOCC3)c3[nH]cnc3n2)cc1` [RMP-D08, 1-(4-(6-morpholino-7H-purin-2-yl)phenyl)-3-(4-((2-morpholinoethoxy)methyl)phenyl)urea], the IC50 turned out to be 46.1 nM.
On to `O=C(Nc1ccc(CO)cc1)Nc1ccc(-c2nc(N3CCOCC3)c3[nH]cnc3n2)cc1` [RMP-D06, 1-(4-(hydroxymethyl)phenyl)-3-(4-(6-morpholino-7H-purin-2-yl)phenyl)urea], for which the IC50 came to 22.6 nM.
Consider `O=C(Nc1ccc(-c2nc(N3CCOCC3)c3[nH]cnc3n2)cc1)Nc1ccc(CO)c(C(F)(F)F)c1` [RMP-D07, 1-(4-(hydroxymethyl)-3-(trifluoromethyl)phenyl)-3-(4-(6-morpholino-7H-purin-2-yl)phenyl)urea], for which the IC50 worked out at 215 nM.
